By IC50 is commonly meant the concentration that gives 50% inhibition.

The nature of this experiment: Inhibition of STAT5b in mouse BaF3/FLT3-ITD cells assessed as reduction in cell proliferation.
For the compound `O=C(O)c1nonc1NCn1cnnn1`, the IC50 is 153 µM. With `O=C(O)c1nonc1NCn1nnnc1Cc1ccccc1`, the IC50 came to 76 µM. The value for `COC(=O)c1nonc1NCn1cnnn1` was 25 µM.

For the origin of these results see BindingDB's records for doi:10.1021/acs.jmedchem.9b01183 (Univ. Lille, 2020).
